Experimental findings from ChEMBL document CHEMBL2010659, “Synthesis of novel long wavelength cationic chlorins via stereoselective aldol-like condensation” (Bioorg Med Chem Lett, 2012) are described below.

pIC50: −log10 of the molar value. The source made the active and inactive calls. The rule behind the calls is not given here.

Holding throughout (type): functional, cell-based
The test system of experiment [1] is HeLa. Put plainly: Cytotoxicity against human HeLa cells of light exposed compound after 12 hrs by WST-8 assay. On the technique in general: Tetrazolium dyes change colour on reduction, which living cells bring about.
The test system of experiment [2] is HeLa. As to the kind of experiment: Cytotoxicity against human HeLa cells of light exposed compound up to 10 uM after 12 hrs by WST-8 assay.
For experiment [3], the system named is HeLa. As to the kind of experiment: Cytotoxicity against human HeLa cells up to 10 uM after 12 hrs by WST-8 assay.

The term pIC50 denotes the IC50 on a negative log10 scale, so that one unit is a factor of ten. A lower pIC50 goes with a large IC50. Regarding `CCC1=C(C)c2cc3[nH]c(cc4nc(c5c6[nH]c(cc1n2)c(C)c6C(=O)N(OC)C5=O)[C@@H](CCC(=O)OC)[C@@H]4C)c(C)c3/C=C/c1ccc2ccccc2[n+]1C`, in the experiment with HeLa [1], the Activity result was “Dose-dependent effect” and the pIC50 is 6.01. The outcome in the experiment with HeLa [2] was Active. Also, the result with HeLa [3] was inactive.

For the compound `CCC1=C(C)c2cc3[nH]c(cc4nc(c5c6[nH]c(cc1n2)c(C)c6C(=O)C5)[C@@H](CCC(=O)OC)[C@@H]4C)c(C)c3/C=C/c1cc[n+](C)cc1`, in the experiment on HeLa [1], the Activity result is “Dose-dependent effect” and the pIC50 is 5.10. In the experiment on HeLa [2], the result was Active. In addition, the result in the experiment with HeLa [3] was inactive.

For the compound `CCC1=C(C)c2cc3[nH]c(cc4nc(c5c6[nH]c(cc1n2)c(C)c6C(=O)N(OC)C5=O)[C@@H](CCC(=O)OC)[C@@H]4C)c(C)c3/C=C/c1cccc[n+]1C`, in the experiment on HeLa [1], the Activity entry was “Dose-dependent effect” and the pIC50 was 6.96. The result in the experiment on HeLa [2] was Active. Moreover, in the experiment with HeLa [3], the outcome was inactive.

Take `C=Cc1c(C)c2cc3nc(c4c5[nH]c(cc6nc(cc1[nH]2)C(C)=C6CC)c(C)c5C(=O)C4)[C@@H](CCC(=O)OC)[C@@H]3C` [METHYL PYROPHEOPHORBIDE A]: in the experiment on HeLa [1], the Activity result was “Dose-dependent effect” and the pIC50 was 6.55. For the same compound, the outcome in the experiment with HeLa [2] was Active. The result in the experiment on HeLa [3] was inactive.

As to `CCC1=C(C)c2cc3[nH]c(cc4nc(c5c6[nH]c(cc1n2)c(C)c6C(=O)C5)[C@@H](CCC(=O)OC)[C@@H]4C)c(C)c3/C=C/c1ccc2ccccc2[n+]1C`, in the experiment on HeLa [1], the Activity result was “Dose-dependent effect” and the pIC50 is 5.27. Moreover, in the experiment on HeLa [2], the outcome was Active. The outcome with HeLa [3] was inactive.

Turning to `C=Cc1c(C)c2cc3nc(c4c5[nH]c(cc6nc(cc1[nH]2)C(C)=C6CC)c(C)c5C(=O)N(OC)C4=O)[C@@H](CCC(=O)OC)[C@@H]3C`, in the experiment with HeLa [1], the Activity entry is “Dose-dependent effect” and the pIC50 is 5.57. Moreover, the result with HeLa [2] was Active. Also, the result in the experiment with HeLa [3] was inactive.
